# Assays:
# [1] = biological target: T1, bovine serum albumin (BSA) (Bos taurus, UniProt P02769); assay: Cannabis smoke bubbled through aqueous BSA solution, cannabinoids determined by HPLC (Example 1a); type: binding; details: BSA in Hartmann's solution; FIG. 2A
# T1 construct: purchased Millipore, USA
# Method: Protein-bound cannabinoid was formed according to the following method. An aqueous albumin solution was prepared by adding 20 (mg)) of bovine serum albumin (BSA, from Millipore, USA) to 10 milliliters (ml) ml Hartmann's solution (B. Braun Melsungen AG, Germany). BSA was completely dissolved using a shaker (Heidolph POLYMAX 1040) at 50 revolutions per minute.
# A cannabis-filled cigarette was formed using a cigarette paper containing 0.8 gr ground cannabis (provided by “Seach” Israel), from flowers and budding leaves. A Pasteur pipette was cut longitudinally at its wide end, and the cigarette was lodged in to the cut end. The narrow end of the pipette was attached to a syringe. The cigarette was lit in a fume hood, and cigarette smoke was collected in the syringe by pulling the syringe plunger. The smoke was then slowly released into the BSA solution by depressing the plunger. Approximately 350 ml of smoke-containing air was gently bubbled through the BSA solution.
# As a control, a solution of 10 ml of Hartmann's solution was prepared without the addition of BSA and a similar procedure of cannabis smoke formation and bubbling was performed.
# Samples having a volume of 3 ml of the BSA solution and the control solution were each inserted in to HPLC glass vials and the open vials were inserted into a vacuum oven for 24 hours at 37° Celsius.
# The solid phase after the evaporation was crushed in to a fine powder using mortar and pestle. The powder was extracted using Methanol chloroform 9:1 extract solution, sonicated for 30 minutes, and was then filtered and added in to an HPLC testing tube.
# HPLC was performed using an HP1050 AGILENT, DAD detector, XBridge C18 3.5 μm 4.6×150 mm column, and according to the following parameters: […]
# [2] = biological target: T2, BSA (Bos taurus, UniProt P02769); assay: THC standard adsorption to BSA at varying ethanol content (Example 1c); type: binding, bovine; details: 10 micrograms BSA, 30 micrograms THC, 1.5-15 microliters ethanol; FIG. 5
# Method: 30 micrograms of THC standard was dissolved in various amounts of ethanol (absolute) in various amounts, between 1.5 microliters and 15 microliters. The THC solution was then combined with 0.5 ml of a 20 microgram/ml solution of BSA. […] The results can be seen in FIG. 5.
# [3] = biological target: T2, BSA; assay: Cannabis smoke/vapor passed through BSA/water/ethanol solution, cannabinoid profile (Example 1d); type: binding, bovine; details: 33% ethanol, 48 hours incubation, washed
# Method: (§1) To show which cannabinoid compounds are solubilized in processes using BSA versus organic solvents, cannabis from two different batches was smoked and or vaporized. Vapor was formed using a “volcano” vaporizer at a temperature of 210° C. The smoke/vapor was passed through either a BSA/water/ethanol solution described in example 1b, comprising 33% by volume ethanol or through a pure ethanol (99% ethanol) solution. Solutions were stirred using a magnetic stirrer and were incubated for 48 hours, during which time, most of the ethanol evaporated. One of the batches of cannabis was high in THC, and the other batch of cannabis was high in both THC and CBD.
# The BSA/water/ethanol solution was washed after smoke or vapor was combined with it, and the amount of cannabinoids present was analyzed. The results of the comparison of relative concentration of cannabinoids (relative to total cannabinoid content) as expressed in percent (weight/weight), for a strain of cannabis high in THC are shown in the table below.
# [4] = Cannabis smoke/vapor passed through pure ethanol, cannabinoid profile (Example 1d); type: physicochemical; details: for relative concentration of cannabinoids (relative to total cannabinoid content), Vapor passed through ethanol: vapor at 210° C.
# Method: as §1
# [5] = biological target: T2, BSA; assay: Adsorption capacity of BSA using THC standard (Example 1e); type: binding, bovine; details: albumin 20 μg/ml in water and ethanol; THC 20-60 μg/ml; incubation two hours or 12 hours; FIG. 4
# Method: An albumin solution in water (20 μg/ml) and ethanol was prepared. THC standard was added at concentrations of between 20 μg/ml and 60 μg/ml. The amount of THC adsorbed to the BSA protein was determined for each concentration after incubation for either two hours or 12 hours while gently vortexing.
# [6] = system: bovine γ-globulin; assay: Cannabis vapor streamed through protein solution, cannabinoids adsorbed (Example 1f); type: binding; details: vapor of cannabis high in CBD; 1 mg/ml protein, ethanol:water 1:2, 30° C., 24 hours
# Method: (§2) The protein solutions were formed using ethanol and water in a 1:2 ratio. The solutions were incubated at 30° C. for 24 hours.
# [7] = biological target: T3, ovalbumin (hen) (Gallus gallus, UniProt P01012); assay: as above; type: binding; details: vapor of cannabis high in CBD; 1 mg/ml protein, ethanol:water 1:2, 30° C., 24 hours
# T3 sequence (P01012 1-386): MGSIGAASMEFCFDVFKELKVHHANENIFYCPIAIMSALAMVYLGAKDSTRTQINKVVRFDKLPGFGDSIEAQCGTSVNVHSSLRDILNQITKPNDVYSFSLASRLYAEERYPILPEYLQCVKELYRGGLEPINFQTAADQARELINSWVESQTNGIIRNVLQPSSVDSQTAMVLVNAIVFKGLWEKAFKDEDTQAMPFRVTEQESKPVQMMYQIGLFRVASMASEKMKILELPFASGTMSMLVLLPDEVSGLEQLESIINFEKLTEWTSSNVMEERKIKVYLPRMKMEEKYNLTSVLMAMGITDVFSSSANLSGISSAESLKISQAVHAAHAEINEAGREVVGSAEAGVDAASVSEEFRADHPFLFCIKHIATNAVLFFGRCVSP
# Method: as §2
# [8] = biological target: T4, rice recombinant human serum albumin (HSA) (Homo sapiens, UniProt P02768); assay: as above; type: binding; details: vapor of cannabis high in CBD; 1 mg/ml protein, ethanol:water 1:2, 30° C., 24 hours
# T4 construct: host or cells: rice (recombinant expression host)
# Method: as §2
# [9] = Cannabinoid content of cannabis extract (Example 2a); type: physicochemical; details: methanol/chloroform 9:1 cannabis extract
# Method: (§3) Cannabis extract was prepared as follows: In short, cannabis plant matter is dried, ground and homogenized to form ground cannabis. The ground cannabis is extracted with methanol/chloroform (volume/volume ratio of 9:1). Sonication and filtration is then performed. Identity of cannabinoids is determined by HPLC by evaporation, dissolution in an appropriate solvent.
# (§4) Drying of the cannabis plant matter occurs under high vacuum at about 37±2° C. for about 24 hours and then ground to form a fine powder. 200 mg of ground powder is combined with 10 ml of methanol/chloroform, and sonicated in an ice bath for 30 minutes at maximum power. The supernatant is then filtered through a 0.2 micron filter.
# (§5) A sample of the cannabis extract was analyzed for content of cannabinoids. The cannabis extract was then combined with albumin solution having 20% ethanol at 10 mg/ml (BSA) and incubated for 2 hours at room temperature.
# [10] = biological target: T2, BSA; assay: Cannabis extract combined with albumin solution, cannabinoids adsorbed to BSA (Example 2a); type: binding, bovine; details: albumin solution 10 mg/ml (BSA) with 20% ethanol, 2 hours at room temperature
# Method: as §3, §4, §5
# [11] = biological target: albumin (BSA) (Bos taurus, UniProt P02769); assay: Ethanolic cannabinoid solution mixed with aqueous albumin, protein-bound cannabinoid quantified (Example 2b); type: binding, bovine; parameters: protein-bound cannabinoid quantified, Vapor: unit not given beside the values; details: 100 microliters ethanolic solution + 500 microliters 5 mg/ml BSA, 30° C., 12 hours, non-adsorbed cannabinoids separated
# Method: 100 microliters of ethanolic cannabinoid solution from cannabis vapor and cannabis smoke were each mixed with 500 microliters of aqueous albumin solution that had been prepared at a concentration of 5 mg albumin (BSA)/ml. The aqueous albumin solution combined with the ethanolic cannabinoid solution was incubated at 30° C. for 12 hours in open tubes. After 12 hours, the tubes were mixed and centrifuged, and non-adsorbed cannabinoids were separated from the solution. Concentrated protein-bound cannabinoid was dried and quantified as described below.
# [12] = 3 g high THC strain; 200 ml ethanol concentrated to about 3 ml
# [13] = strain of cannabis high in CBD and THC
# T2 sequence (P02769 25-607): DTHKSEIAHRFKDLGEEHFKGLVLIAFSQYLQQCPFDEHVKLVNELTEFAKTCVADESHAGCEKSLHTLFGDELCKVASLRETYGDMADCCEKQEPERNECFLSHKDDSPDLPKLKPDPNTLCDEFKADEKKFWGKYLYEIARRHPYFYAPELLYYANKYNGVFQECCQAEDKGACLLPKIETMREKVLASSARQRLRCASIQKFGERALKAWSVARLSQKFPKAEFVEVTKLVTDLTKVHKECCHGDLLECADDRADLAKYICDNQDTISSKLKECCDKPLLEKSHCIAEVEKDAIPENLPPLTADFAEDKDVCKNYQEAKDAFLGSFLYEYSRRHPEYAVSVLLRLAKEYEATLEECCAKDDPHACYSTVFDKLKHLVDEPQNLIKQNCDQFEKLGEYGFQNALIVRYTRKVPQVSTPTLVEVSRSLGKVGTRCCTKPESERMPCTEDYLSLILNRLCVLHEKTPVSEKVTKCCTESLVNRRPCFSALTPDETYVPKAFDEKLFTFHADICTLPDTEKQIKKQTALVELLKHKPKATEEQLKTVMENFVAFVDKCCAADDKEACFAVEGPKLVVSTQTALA
# Sequence of albumin (BSA) (P02769 25-607): as above
# T4 sequence (P02768 25-609): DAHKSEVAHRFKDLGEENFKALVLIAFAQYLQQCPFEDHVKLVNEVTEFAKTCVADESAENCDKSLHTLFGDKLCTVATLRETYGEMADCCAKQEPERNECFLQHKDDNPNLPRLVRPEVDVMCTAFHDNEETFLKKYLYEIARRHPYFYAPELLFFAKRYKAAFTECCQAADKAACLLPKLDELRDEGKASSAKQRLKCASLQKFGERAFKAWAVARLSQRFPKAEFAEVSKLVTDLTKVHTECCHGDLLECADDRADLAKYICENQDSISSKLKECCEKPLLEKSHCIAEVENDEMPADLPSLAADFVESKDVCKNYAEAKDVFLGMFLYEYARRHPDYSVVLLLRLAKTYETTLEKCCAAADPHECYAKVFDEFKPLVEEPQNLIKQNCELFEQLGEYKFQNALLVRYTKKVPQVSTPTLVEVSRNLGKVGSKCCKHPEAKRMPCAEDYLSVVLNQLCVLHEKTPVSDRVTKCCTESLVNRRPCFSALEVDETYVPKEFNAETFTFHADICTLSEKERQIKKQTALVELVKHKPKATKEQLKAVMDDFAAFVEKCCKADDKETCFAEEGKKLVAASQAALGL
# T1 sequence (P02769 25-607): as the sequence (P02769 25-607) above
structure (smiles),measurement,setting,value
"CCCCCc1cc(O)c2c(c1)OC(C)(C)[C@@H]1CCC(C)=C[C@@H]21 [THC, tetrahydrocannabinol, reference compound]",active cannabinoids found by HPLC in BSA aqueous solution after cannabis smoke was introduced,[1],dissolved in the solution
same,adsorption of THC to protein as ethanol concentration increases,[2],adsorption of THC to protein increases
same,"relative concentration of cannabinoids (relative to total cannabinoid content), Smoke passed through BSA/water/ethanol",[3]; [13],32.8 percent (weight/weight)
same,"relative concentration of cannabinoids (relative to total cannabinoid content), Vapor passed through BSA/water/ethanol",[3]; [13],37.7 percent (weight/weight)
same,"relative concentration of cannabinoids (relative to total cannabinoid content), Smoke passed through BSA/water/ethanol",[3]; strain of cannabis high in THC,69.7 percent (weight/weight)
same,"relative concentration of cannabinoids (relative to total cannabinoid content), Smoke passed through ethanol",[4]; [13],40.7 percent (weight/weight)
same,"relative concentration of cannabinoids (relative to total cannabinoid content), Vapor passed through ethanol",[4]; [13],40.9 percent (weight/weight)
same,"relative concentration of cannabinoids (relative to total cannabinoid content), Smoke passed through ethanol",[4]; strain of cannabis high in THC,86.7 percent (weight/weight)
same,"relative concentration of cannabinoids (relative to total cannabinoid content), Vapor passed through ethanol",[4]; strain of cannabis high in THC,94.6 percent (weight/weight)
same,adsorbed THC per mg of albumin,[5],above 50 μg adsorbed THC per mg of albumin
same,"percentage of each cannabinoid relative to total cannabinoids adsorbed to protein, Bovine γ-globulin",[6],0 percentage
same,"percentage of each cannabinoid relative to total cannabinoids adsorbed to protein, Ovalbumin",[7],41.7 percentage
same,"percentage of each cannabinoid relative to total cannabinoids adsorbed to protein, Rice recombinant HSA",[8],21 percentage
same,"percentage of each cannabinoid relative to total cannabinoids, Extract",[9],68 percentage
same,"percentage of each cannabinoid relative to total cannabinoids adsorbed to protein, Adsorbed to BSA after extract combined with BSA solution",[10],63 percentage
same,"protein-bound cannabinoid quantified, Smoke",[11],121.38
same,"protein-bound cannabinoid quantified, Vapor",[11],131.955
same,"amount of cannabinoids dissolved in ethanol, Smoke",[12],6195.223 micrograms/ml
same,"amount of cannabinoids dissolved in ethanol, Vapor",[12],3777.7796 micrograms/ml
